Our source for the MIC values is ChEMBL document CHEMBL1145536, “Low-oxygen-recovery assay for high-throughput screening of compounds against nonreplicating Mycobacterium tuberculosis” (2007).

Molecules are shown by their SMILES. In brackets after ≈: the same amount, converted by molar mass.

The term MIC denotes the smallest concentration in the dilution series that meets the test's criterion for growth inhibition.

Common to all, as to assay type: functional
The test system of assay [1] is Mycobacterium tuberculosis. Nature of the assay: Antimicrobial activity against non replicating persistence Mycobacterium tuberculosis H37Rv in anaerobic condition assessed as relative light unit after 11 days by LORA assay. The settings on record: 264 h.
Assay [2] relates to Mycobacterium tuberculosis. Nature of the assay: Antimicrobial activity against non replicating persistence Mycobacterium tuberculosis H37Rv in anaerobic condition assessed as bacterial density after 10 days. Particulars: 240 h.
For assay [3], the system named is Mycobacterium tuberculosis. Nature of the assay: Antimicrobial activity against non replicating persistence Mycobacterium tuberculosis H37Rv in aerobic condition assessed by relative light units after 7 days. Particulars: 168 h.
Assay [4] relates to Mycobacterium tuberculosis. Put plainly: Antimicrobial activity against non replicating persistence Mycobacterium tuberculosis H37Rv in aerobic condition assessed as bacterial density after 7 days. The settings on record: 168 h.

Regarding `CN(C)c1ccc(O)c2c1C[C@H]1C[C@H]3[C@H](N(C)C)C(O)=C(C(N)=O)C(=O)[C@@]3(O)C(O)=C1C2=O` [MINOCYCLINE], the minimum inhibitory concentration (MIC) in assay [1] was 53.5 µM (≈ 24.5 µg/mL); in assay [2], 38.4 µM (≈ 17.6 µg/mL); in assay [3], 7.1 µM (≈ 3.25 µg/mL); in assay [4] it was 7.2 µM (≈ 3.29 µg/mL).
On the same counts, the results for `CC(=O)N1CCN(c2ccc(OC[C@H]3CO[C@](Cn4ccnc4)(c4ccc(Cl)cc4Cl)O3)cc2)CC1` [KETOCONAZOLE] are 53 µM (≈ 28.2 µg/mL), 53.3 µM (≈ 28.3 µg/mL), 13.9 µM (≈ 7.39 µg/mL) and 7.6 µM (≈ 4.04 µg/mL).
On the same counts, the results for `CO[C@H]1/C=C/O[C@@]2(C)Oc3c(C)c(O)c4c(c3C2=O)C2=NC3(CCN(CC(C)C)CC3)NC2=C(NC(=O)/C(C)=C\C=C\[C@H](C)[C@H](O)[C@@H](C)[C@@H](O)[C@@H](C)[C@H](OC(C)=O)[C@@H]1C)C4=O` [RIFABUTIN] are at most 0.5 µM, at most 0.5 µM, 0.5 µM (≈ 0.424 µg/mL) and at most 0.5 µM.
On the same counts, the results for `CCC[C@@H]1C[C@@H](C(=O)N[C@H](C(C)Cl)[C@H]2O[C@H](SC)[C@H](O)[C@@H](O)[C@H]2O)N(C)C1` (single isomer, unassigned) [CLINDAMYCIN] are over 128 µM, over 128 µM, over 128 µM and over 128 µM.
As to `CC(C)/N=c1\cc2n(-c3ccc(Cl)cc3)c3ccccc3nc-2cc1Nc1ccc(Cl)cc1` [CLOFAZIMINE], the MIC in assay [1] was 1.5 µM (≈ 0.71 µg/mL); in assay [2], 0.8 µM (≈ 0.379 µg/mL); in assay [3], at most 0.5 µM; in assay [4], 0.7 µM (≈ 0.331 µg/mL).
Consider `CC1COc2c(N3CCN(C)CC3)c(F)cc3c(=O)c(C(=O)O)cn1c23` (stereo not given) [OFLOXACIN], for which the MIC was over 128 µM in assay [1], 24.2 µM (≈ 8.75 µg/mL) in assay [2], 2.3 µM (≈ 0.831 µg/mL) in assay [3] and 0.7 µM (≈ 0.253 µg/mL) in assay [4].
In the case of `C[C@]1(Cn2ccnn2)[C@H](C(=O)O)N2C(=O)C[C@H]2S1(=O)=O` [TAZOBACTAM], the MIC in assay [1], in assay [2], in assay [3] and in assay [4] was over 128 µM each time.
For the molecule `CC(=O)O[C@H]1C[C@@]2(C)[C@@H](C[C@@H](O)[C@H]3[C@@]4(C)CC[C@@H](O)[C@@H](C)[C@@H]4CC[C@@]32C)/C1=C(\CCC=C(C)C)C(=O)O` [FUSIDIC ACID], the MIC in assay [1] turned out to be 57.7 µM (≈ 29.8 µg/mL); in assay [2], 7.2 µM (≈ 3.72 µg/mL); in assay [3], 15.8 µM (≈ 8.16 µg/mL); in assay [4] it was 7 µM (≈ 3.62 µg/mL).
Regarding `O=C1CN(/N=C/c2ccc([N+](=O)[O-])o2)C(=O)N1` [NITROFURANTOIN], the MIC in assay [1] is 63.9 µM (≈ 15.2 µg/mL); in assay [2] it was 32 µM (≈ 7.62 µg/mL); in assay [3] it was over 128 µM; in assay [4], 0.9 µM (≈ 0.214 µg/mL).
As for `CC[C@@H](CO)NCCN[C@@H](CC)CO` [ETHAMBUTOL], the MIC was over 128 µM in assay [1], over 128 µM in assay [2], 1.8 µM (≈ 0.368 µg/mL) in assay [3] and 1 µM (≈ 0.204 µg/mL) in assay [4].
With `NNC(=O)c1ccncc1` [ISONIAZID], the MIC was over 128 µM in assay [1], over 128 µM in assay [2], at most 0.5 µM in assay [3] and at most 0.5 µM in assay [4].
For `Nc1ccc(C(=O)O)c(O)c1` [AMINOSALICYLIC ACID], the MIC in assay [1] was over 128 µM; in assay [2], over 128 µM; in assay [3], 12.3 µM (≈ 1.88 µg/mL); in assay [4] it was 12.3 µM (≈ 1.88 µg/mL).
With `CC(=O)Nc1ccc(/C=N/NC(N)=S)cc1` [AMITHIOZONE], the MIC in assay [1] was over 128 µM; in assay [2], 70.4 µM (≈ 16.6 µg/mL); in assay [3], 14.6 µM (≈ 3.45 µg/mL); in assay [4] it was 31.3 µM (≈ 7.4 µg/mL).
For `CO[C@H]1/C=C/O[C@@]2(C)Oc3c(C)c(O)c4c(O)c(c(/C=N/N5CCN(C)CC5)c(O)c4c3C2=O)NC(=O)/C(C)=C\C=C\[C@H](C)[C@H](O)[C@@H](C)[C@@H](O)[C@@H](C)[C@H](OC(C)=O)[C@@H]1C` [RIFAMPIN], the MIC is 1.8 µM (≈ 1.48 µg/mL) in assay [1], at most 0.5 µM in assay [2], 0.5 µM (≈ 0.411 µg/mL) in assay [3] and at most 0.5 µM in assay [4].
`COc1c(N2C[C@@H]3CCCN[C@@H]3C2)c(F)cc2c(=O)c(C(=O)O)cn(C3CC3)c12` [MOXIFLOXACIN]: the MIC was 15.9 µM (≈ 6.38 µg/mL) in assay [1], at most 0.5 µM in assay [2], 0.5 µM (≈ 0.201 µg/mL) in assay [3] and at most 0.5 µM in assay [4].
As for `COc1cc(Cc2cnc(N)nc2N)cc(OC)c1OC` [TRIMETHOPRIM], the MIC in assay [1] is over 128 µM; in assay [2], 83.2 µM (≈ 24.2 µg/mL); in assay [3] it was over 128 µM; in assay [4], over 128 µM.
In the case of `CC[C@H]1OC(=O)[C@H](C)[C@@H](O[C@H]2C[C@@](C)(OC)[C@@H](O)[C@H](C)O2)[C@H](C)[C@@H](O[C@@H]2O[C@H](C)C[C@H](N(C)C)[C@H]2O)[C@](C)(OC)C[C@@H](C)C(=O)[C@H](C)[C@@H](O)[C@]1(C)O` [CLARITHROMYCIN], the MIC is over 128 µM in assay [1], 18.7 µM (≈ 14 µg/mL) in assay [2], 13.4 µM (≈ 10 µg/mL) in assay [3] and 1.6 µM (≈ 1.2 µg/mL) in assay [4].
In the case of `CC(=O)NC[C@H]1CN(c2ccc(N3CCOCC3)c(F)c2)C(=O)O1` [LINEZOLID], the MIC in assay [1] was 65.2 µM (≈ 22 µg/mL); in assay [2], over 128 µM; in assay [3], 6.3 µM (≈ 2.13 µg/mL); in assay [4], 1.9 µM (≈ 0.641 µg/mL).
As to `O=C(O)c1cn(C2CC2)c2cc(N3CCNCC3)c(F)cc2c1=O` [CIPROFLOXACIN], the MIC in assay [1] is over 128 µM; in assay [2], 33 µM (≈ 10.9 µg/mL); in assay [3], 1.5 µM (≈ 0.497 µg/mL); in assay [4], at most 0.5 µM.
The like results for `CN[C@@H]1[C@H](O[C@H]2[C@H](O[C@H]3[C@H](O)[C@@H](O)[C@H](N=C(N)N)[C@@H](O)[C@@H]3N=C(N)N)O[C@@H](C)[C@]2(O)C=O)O[C@@H](CO)[C@H](O)[C@H]1O` (stereo in doubt) [STREPTOMYCIN] were, in that order, 1.2 µM (≈ 0.698 µg/mL), 0.8 µM (≈ 0.465 µg/mL), 0.5 µM (≈ 0.291 µg/mL) and at most 0.5 µM.
On the same counts, the results for `CCC[C@@H]1C[C@@H](C(=O)N[C@@H]([C@H]2O[C@H](SC)[C@H](O)[C@@H](O)[C@H]2O)[C@@H](C)O)N(C)C1` [LINCOMYCIN] are over 128 µM, over 128 µM, over 128 µM and 104 µM (≈ 42.1 µg/mL).
The like results for `Cc1ncc([N+](=O)[O-])n1CCO` [METRONIDAZOLE] were, in that order, over 128 µM, 40 µM (≈ 6.85 µg/mL), over 128 µM and over 128 µM.
On to `O=C1OCCN1/N=C/c1ccc([N+](=O)[O-])o1` [FURAZOLIDONE], for which the MIC came to 9.7 µM (≈ 2.18 µg/mL) in assay [1], 44.8 µM (≈ 10.1 µg/mL) in assay [2], 77.4 µM (≈ 17.4 µg/mL) in assay [3] and 1 µM (≈ 0.225 µg/mL) in assay [4].
On the same counts, the results for `CC[C@H]1OC(=O)[C@H](C)[C@@H](O[C@H]2C[C@@](C)(OC)[C@@H](O)[C@H](C)O2)[C@H](C)[C@@H](O[C@@H]2O[C@H](C)C[C@H](N(C)C)[C@H]2O)[C@](C)(OC)C[C@@H](C)C(=O)[C@H](C)[C@@H]2N(NCCCc3ccnc4ccccc34)C(=O)O[C@@]21C` are 2.7 µM (≈ 2.58 µg/mL), 1.3 µM (≈ 1.24 µg/mL), 0.8 µM (≈ 0.766 µg/mL) and 1.8 µM (≈ 1.72 µg/mL).
On the same counts, the results for `O=C(Nc1ccc([N+](=O)[O-])cc1Cl)c1cc(Cl)ccc1O` [NICLOSAMIDE] are at most 0.5 µM, 0.9 µM (≈ 0.294 µg/mL), at most 0.5 µM and at most 0.5 µM.
On to `NCC[C@H](O)C(=O)N[C@@H]1C[C@H](N)[C@@H](O[C@H]2O[C@H](CN)[C@@H](O)[C@H](O)[C@H]2O)[C@H](O)[C@H]1O[C@H]1O[C@H](CO)[C@@H](O)[C@H](N)[C@H]1O` [AMIKACIN], for which the MIC in assay [1] is at most 0.5 µM; in assay [2], at most 0.5 µM; in assay [3], 0.5 µM (≈ 0.293 µg/mL); in assay [4], at most 0.5 µM.
In the case of `CN[C@H](CC(C)C)C(=O)N[C@H]1C(=O)N[C@@H](CC(N)=O)C(=O)N[C@H]2C(=O)N[C@H]3C(=O)N[C@H](C(=O)N[C@H](C(=O)O)c4cc(O)cc(O)c4-c4cc3ccc4O)[C@H](O)c3ccc(c(Cl)c3)Oc3cc2cc(c3O[C@@H]2O[C@H](CO)[C@@H](O)[C@H](O)[C@H]2O[C@H]2C[C@](C)(N)[C@H](O)[C@H](C)O2)Oc2ccc(cc2Cl)[C@H]1O` [VANCOMYCIN], the MIC in assay [1] was over 128 µM; in assay [2], 128 µM (≈ 186 µg/mL); in assay [3], over 128 µM; in assay [4], 15.5 µM (≈ 22.5 µg/mL).
Take `NC(=O)c1cnccn1` [PYRAZINAMIDE]: the MIC in assay [1] was over 128 µM; in assay [2], 96 µM (≈ 11.8 µg/mL); in assay [3] it was over 128 µM; in assay [4] it was over 128 µM.
With `O=[N+]([O-])c1cn2c(n1)OC[C@@H](OCc1ccc(OC(F)(F)F)cc1)C2` [PRETOMANID], the MIC in assay [1] stood at 3.1 µM (≈ 1.11 µg/mL); in assay [2], 12 µM (≈ 4.31 µg/mL); in assay [3] it was 0.6 µM (≈ 0.216 µg/mL); in assay [4], 0.7 µM (≈ 0.251 µg/mL).
The like results for `N[C@@H]1CONC1=O` [CYCLOSERINE] were, in that order, over 128 µM, 125 µM (≈ 12.7 µg/mL), 63.7 µM (≈ 6.5 µg/mL) and 60.5 µM (≈ 6.18 µg/mL).
